# Data: ChEMBL document CHEMBL3286221, “Design and synthesis of novel 1,2,3-triazole derivatives of coronopilin as anti-cancer compounds” (Eur J Med Chem, 2014)
# How the values were obtained:
# THP-1 = assay: Cytotoxicity against human THP1 cells after 48 hrs by sulforhodamine B assay; format: functional, cell-based; settings: THP-1, 48 h
# PC-3 [1] = assay: Cytotoxicity against human PC3 cells after 48 hrs by sulforhodamine B assay; format: functional, cell-based; settings: PC-3, 48 h
# [2] = Cytotoxicity against human HCT15 cells after 48 hrs by sulforhodamine B assay; format: functional, cell-based; settings: HCT-15, 48 h
# HeLa = assay: Cytotoxicity against human HeLa cells after 48 hrs by sulforhodamine B assay; format: functional, cell-based
# A549 = assay: Cytotoxicity against human A549 cells after 48 hrs by sulforhodamine B assay; format: functional, cell-based; settings: A549, 48 h
# MCF7 = assay: Cytotoxicity against human MCF7 cells after 48 hrs by sulforhodamine B assay; format: functional, cell-based; settings: MCF7, 48 h
# PC-3 [3] = assay: Cell cycle arrest in human PC3 cells assessed as accumulation at sub-G1 phase after 24 hrs by propidium iodide staining-based flow cytometric analysis; format: functional
# PC-3 [4] = assay: Cell cycle arrest in human PC3 cells assessed as accumulation at sub-G1 phase at 1 uM after 24 hrs by propidium iodide staining-based flow cytometric analysis (reference value: 13.1%); format: functional
# PC-3 [5] = assay: Cell cycle arrest in human PC3 cells assessed as accumulation at G0/G1 phase at 1 uM after 24 hrs by propidium iodide staining-based flow cytometric analysis (reference value: 68.2%); format: functional
# PC-3 [6] = assay: Cell cycle arrest in human PC3 cells assessed as accumulation at S phase at 1 uM after 24 hrs by propidium iodide staining-based flow cytometric analysis (reference value: 8.5%); format: functional
# PC-3 [7] = assay: Cell cycle arrest in human PC3 cells assessed as accumulation at M phase at 1 uM after 24 hrs by propidium iodide staining-based flow cytometric analysis (reference value: 3%); format: functional
# PC-3 [8] = assay: Cell cycle arrest in human PC3 cells assessed as accumulation at sub-G1 phase at 5 uM after 24 hrs by propidium iodide staining-based flow cytometric analysis (reference value: 13.1%); format: functional
# PC-3 [9] = assay: Cell cycle arrest in human PC3 cells assessed as accumulation at G0/G1 phase at 5 uM after 24 hrs by propidium iodide staining-based flow cytometric analysis (reference value: 68.2%); format: functional
# PC-3 [10] = assay: Cell cycle arrest in human PC3 cells assessed as accumulation at S phase at 5 uM after 24 hrs by propidium iodide staining-based flow cytometric analysis (reference value: 8.5%); format: functional
# PC-3 [11] = assay: Cell cycle arrest in human PC3 cells assessed as accumulation at M phase at 5 uM after 24 hrs by propidium iodide staining-based flow cytometric analysis (reference value: 3%); format: functional
# PC-3 [12] = assay: Cell cycle arrest in human PC3 cells assessed as accumulation at sub-G1 phase at 10 uM after 24 hrs by propidium iodide staining-based flow cytometric analysis (reference value: 13.1%); format: functional
# PC-3 [13] = assay: Cell cycle arrest in human PC3 cells assessed as accumulation at G0/G1 phase at 10 uM after 24 hrs by propidium iodide staining-based flow cytometric analysis (reference value: 68.2%); format: functional
# PC-3 [14] = assay: Cell cycle arrest in human PC3 cells assessed as accumulation at S phase at 10 uM after 24 hrs by propidium iodide staining-based flow cytometric analysis (reference value: 8.5%); format: functional
# PC-3 [15] = assay: Cell cycle arrest in human PC3 cells assessed as accumulation at M phase at 10 uM after 24 hrs by propidium iodide staining-based flow cytometric analysis (reference value: 3%); format: functional
# [16] = target: Transcription factor p65 (Homo sapiens) (UniProt Q04206); assay: Inhibition of NFkappaB p65 binding to consensus DNA sequence in human PC3 cells after 24 hrs by ELISA; format: cell-based; settings: PC-3
# Transcription factor p65 (Homo sapiens), sequence (Q04206 whole entry): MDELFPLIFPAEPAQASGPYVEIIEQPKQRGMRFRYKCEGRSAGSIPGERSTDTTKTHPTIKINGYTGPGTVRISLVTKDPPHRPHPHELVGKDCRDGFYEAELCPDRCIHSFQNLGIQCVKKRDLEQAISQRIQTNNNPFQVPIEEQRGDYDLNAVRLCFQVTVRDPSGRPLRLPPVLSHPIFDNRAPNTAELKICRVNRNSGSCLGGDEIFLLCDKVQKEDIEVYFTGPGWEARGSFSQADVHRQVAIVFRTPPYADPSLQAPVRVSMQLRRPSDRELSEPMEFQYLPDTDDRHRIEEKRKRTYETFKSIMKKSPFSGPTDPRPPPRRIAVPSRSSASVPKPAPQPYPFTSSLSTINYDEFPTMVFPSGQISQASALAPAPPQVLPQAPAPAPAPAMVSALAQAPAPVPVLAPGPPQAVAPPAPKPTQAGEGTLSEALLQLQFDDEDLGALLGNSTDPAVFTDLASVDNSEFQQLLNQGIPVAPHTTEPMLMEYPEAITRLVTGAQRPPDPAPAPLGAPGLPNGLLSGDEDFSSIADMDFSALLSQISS
# [17] = target: Transcription factor p65 (Homo sapiens) (UniProt Q04206); assay: Inhibition of NFkappaB p65 binding to consensus DNA sequence in human PC3 cells after 24 hrs by Western blotting analysis; format: cell-based; settings: PC-3
# [18] = target: Transcription factor p65 (Homo sapiens) (UniProt Q04206); assay: Inhibition of NFkappaB p65 binding to consensus DNA sequence in human PC3 cells at 100 uM after 24 hrs by ELISA relative to control; format: cell-based; settings: PC-3
# [19] = target: Transcription factor p65 (Homo sapiens) (UniProt Q04206); assay: Inhibition of NFkappaB p65 binding to consensus DNA sequence in human PC3 cells at 100 uM after 24 hrs by Western blotting analysis relative to control; format: cell-based; settings: PC-3
SMILES,IC50 (THP-1),IC50 (PC-3 [1]),IC50 [2],IC50 (HeLa),IC50 (A549),IC50 (MCF7),other results
C=C1C(=O)O[C@@H]2[C@H]1CC[C@H](C)[C@]1(O)[C@@H](n3cc(COc4ccccc4Cl)nn3)CC(=O)[C@@]21C,3.8 µM,3.1 µM,5.3 µM,3.6 µM,4.2 µM,9.7 µM,Activity (PC-3 [3]): Dose-dependent effect; Activity (PC-3 [4]): 38.8%; Activity (PC-3 [5]): 52.3%; Activity (PC-3 [6]): 4.2%; Activity (PC-3 [7]): 1%; Activity (PC-3 [8]): 39.9%; Activity (PC-3 [9]): 51.2%; Activity (PC-3 [10]): 3.5%; Activity (PC-3 [11]): 1.9%; Activity (PC-3 [12]): 49.2%; Activity (PC-3 [13]): 50.7%; Activity (PC-3 [14]): 3%; Activity (PC-3 [15]): 1%; inhibition [16]: Dose-dependent effect; inhibition [17]: Dose-dependent effect; inhibition [18]: 80%; inhibition [19]: 80%
C=C1C(=O)O[C@@H]2[C@H]1CC[C@H](C)[C@]1(O)[C@@H](n3cc(COc4ccccc4F)nn3)CC(=O)[C@@]21C,25 µM,4.3 µM,23 µM,3.9 µM,6.3 µM,4.3 µM,
O=c1[nH]cc(F)c(=O)[nH]1 [FLUOROURACIL],,,4.5 µM,4.9 µM,,,
C=C1C(=O)O[C@@H]2[C@H]1CC[C@H](C)[C@]1(O)[C@@H](n3cc(COc4ccccc4C)nn3)CC(=O)[C@@]21C,3.8 µM,10 µM,5.5 µM,8.4 µM,6.2 µM,3.7 µM,
C=C1C(=O)O[C@@H]2[C@H]1CC[C@H](C)[C@]1(O)[C@@H](n3cc(COc4ccc(C)cc4)nn3)CC(=O)[C@@]21C,26 µM,7.6 µM,39 µM,100 µM,21 µM,4.2 µM,
C=C1C(=O)O[C@@H]2[C@H]1CC[C@H](C)[C@]1(O)[C@@H](n3cc(CNc4ccccc4F)nn3)CC(=O)[C@@]21C,,3.3 µM,100 µM,3.7 µM,34 µM,5.1 µM,
C=C1C(=O)O[C@@H]2[C@H]1CC[C@H](C)[C@]1(O)[C@@H](n3cc(COc4ccc(C(F)(F)F)cc4)nn3)CC(=O)[C@@]21C,48 µM,6.4 µM,100 µM,3.5 µM,3.8 µM,13 µM,
CC[C@@]1(O)C(=O)OCc2c1cc1n(c2=O)Cc2cc3ccccc3nc2-1 [CAMPTOTHECIN],,,,,,,Activity (PC-3 [8]): 60.44%; Activity (PC-3 [9]): 30.17%; Activity (PC-3 [10]): 4.94%; Activity (PC-3 [11]): 4.76%
C=C1C(=O)O[C@@H]2[C@H]1CC[C@H](C)[C@]1(O)[C@@H](n3cc(CCc4ccccc4)nn3)CC(=O)[C@@]21C,100 µM,,4.3 µM,16 µM,5.8 µM,16 µM,
C=C1C(=O)O[C@@H]2[C@H]1CC[C@H](C)[C@]1(O)C=CC(=O)[C@@]21C [PARTHENIN],46.2 µM,43.1 µM,35.3 µM,,37.6 µM,40.2 µM,
CO[C@@]12[C@H](COC(N)=O)C3=C(C(=O)C(C)=C(N)C3=O)N1C[C@@H]1N[C@@H]12 [MITOMYCIN],,,0.5 µM,,,,
C=C1C(=O)O[C@@H]2[C@H]1CC[C@H](C)[C@]1(O)[C@@H](n3cc(CNc4ccccc4Br)nn3)CC(=O)[C@@]21C,100 µM,,20 µM,4.8 µM,100 µM,4.2 µM,
